# *1 amine or outer side, *2 acyl side, *3 side chain or, on linkers, in order; H or OH if unused. Where a SMILES comes first, the peptide text is derived from it. [ ]: non-standard residue; d: D form. X2 = O=C(O)CC(CC(=O)O)NC[C@H](N[*:1])C(=O)[*:2]; Abu(4-PO3H2) = N[C@@H](CCP(=O)(O)O)C(=O)O; X1 = O=C([C@H](CNS(=O)(=O)O)N[*:1])[*:2]; M1 = not defined here
# T1: boronic acid-containing PKA pentapeptide inhibitor 21, Ac-RRGXI-NH2
# T1 sequence: RRGXI
# T2: boronic acid-containing PKA pentapeptide inhibitor 22, Ac-RRGXI-NH2
# T2 sequence: RRGXI
# Experiments:
# PKA [1] = molecular target: T3, PKA (Homo sapiens, UniProt P17612); assay: PKA Literature Mimetic assay; format: biochemical; settings: for Ki: Literature Mimetic (L) conditions
# Source text: (§1) The boronic acid inhibitors 21-24 have two Arg residues in their sequence and therefore will bind to the phosphocellulose paper in addition to Kemptamide (although not as consistently or completely due to one less positive charge). Consequently, when analyzed as inhibitors, the amount of phosphorylated Kemptamide produced was not only counted, but also the amount of phosphorylated inhibitor simultaneously produced (e.g. see 26 below). The net result is that distorted IC50 curves are obtained which show net “stimulation” at higher inhibitor concentrations in some cases. […] The underlying substrate behavior of these “inhibitors” makes an accurate measurement of their inhibition potency impossible with the current assay. However, it does appear from the data that homologating/extending the boronic acid functionality with CH2 groups (homologations/extensions with boronic acid non-peptide src inhibitors may also be carried out) decreases the binding affinity and ability of the compound to function as a substrate.
# pp60^c-src = pp60^c-src (Homo sapiens, UniProt P12931); assay: src Cellular Mimetic assay (RR-SRC phosphorylation); settings: for % Inhibition of 2 mM RR-src at Inhibitor Concentration ( ): Table IV; for inhibition at 1000 µM: read-out: % Inhibition of 2 mM RR-src phosphorylation by src, Cellular Mimetic
# PKA [2] = molecular target: T3, PKA; assay: PKA Cellular Mimetic assay; format: biochemical; settings: Cellular Mimetic (C) conditions
# Source text: as §1
# PKA [3] = molecular target: T3, PKA; assay: STAIRe method: form of the protein kinase the inhibitor binds best; format: biochemical
# Source text: This was a somewhat surprising result since these inhibitors are analogs of the “end product inhibitors” 1 and 12 which must bind simultaneously with MgADP, following phosphate transfer in the generally accepted reaction mechanism for protein kinases.
# [4] = test system: ovarian tumor cells from tumor N015; assay: Patient tumor cell culture (ovarian tumors, abdominal carcinoma; tumor N015); format: cell-based, human
# Source text: The initial non-peptide Src inhibitors have also shown very encouraging results in four different series of cell culture assays. 1) In the NIH 60-tumor cell panel assay, broad activity (as one would expect for a Src inhibitor) was seen against the tumor cell lines, including the prostate lines. […] […].
# src = molecular target: T4, src (Homo sapiens, UniProt P12931); assay: src Literature Mimetic assay (RR-src phosphorylation); format: biochemical; settings: Inhibitor 1 mM; read-out: % Inhibition of 2 mM RR-src phosphorylation by src, Literature Mimetic
# T4 construct: purchased
# p56^lck = p56^lck (Homo sapiens, UniProt P06239); settings: analyzed with p56^lck; cited from earlier work
# [5] = test system: T1, boronic acid-containing PKA pentapeptide inhibitor 21, Ac-RRGXI-NH2
# [6] = test system: T2, boronic acid-containing PKA pentapeptide inhibitor 22, Ac-RRGXI-NH2
# [7] = molecular target: cAMP-dependent protein kinase (PKA); assay: PKA kinase inhibition assay, Literature Mimetic conditions
# [8] = molecular target: cAMP-dependent protein kinase (PKA); assay: PKA kinase inhibition assay (Ki, Table I); reference: the same inhibitor under Literature Mimetic conditions
# [9] = molecular target: cAMP-dependent protein kinase (PKA); assay: cell-based or functional assay
# [10] = molecular target: cAMP-dependent protein kinase (PKA); assay: PKA kinase inhibition assay with Kemptamide substrate, Cellular Mimetic conditions, 0 h preincubation
# [11] = molecular target: cAMP-dependent protein kinase (PKA); assay: PKA kinase inhibition assay with Kemptamide substrate, Literature Mimetic conditions, 0 h preincubation
# [12] = molecular target: cAMP-dependent protein kinase (PKA); assay: PKA kinase inhibition assay, Cellular Mimetic conditions; reference: phosphate inhibitor 1
# [13] = molecular target: cAMP-dependent protein kinase (PKA); assay: PKA kinase inhibition assay, Literature Mimetic conditions; reference: phosphate inhibitor 1
# [14] = molecular target: cAMP-dependent protein kinase (PKA); assay: PKA kinase inhibition assay, Literature Mimetic conditions; reference: sulfamic acid inhibitor 8
# pp60^c-src, sequence (P12931 whole entry): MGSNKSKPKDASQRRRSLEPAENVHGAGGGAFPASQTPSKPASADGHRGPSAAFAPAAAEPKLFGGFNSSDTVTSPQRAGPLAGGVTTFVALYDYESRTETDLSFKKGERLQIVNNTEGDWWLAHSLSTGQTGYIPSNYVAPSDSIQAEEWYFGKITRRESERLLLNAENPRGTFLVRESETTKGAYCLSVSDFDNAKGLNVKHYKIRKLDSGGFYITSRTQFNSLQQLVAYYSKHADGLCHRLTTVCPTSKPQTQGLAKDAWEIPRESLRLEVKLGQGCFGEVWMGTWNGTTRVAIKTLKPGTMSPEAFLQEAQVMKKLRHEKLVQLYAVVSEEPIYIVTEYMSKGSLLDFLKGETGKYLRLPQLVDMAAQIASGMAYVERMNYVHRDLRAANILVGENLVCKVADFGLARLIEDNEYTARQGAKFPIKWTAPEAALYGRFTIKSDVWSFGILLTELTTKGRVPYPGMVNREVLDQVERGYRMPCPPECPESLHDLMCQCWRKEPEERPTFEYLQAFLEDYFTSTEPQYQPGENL
# T4 sequence (P12931 whole entry): as above
# p56^lck, sequence (P06239 whole entry, species assumed): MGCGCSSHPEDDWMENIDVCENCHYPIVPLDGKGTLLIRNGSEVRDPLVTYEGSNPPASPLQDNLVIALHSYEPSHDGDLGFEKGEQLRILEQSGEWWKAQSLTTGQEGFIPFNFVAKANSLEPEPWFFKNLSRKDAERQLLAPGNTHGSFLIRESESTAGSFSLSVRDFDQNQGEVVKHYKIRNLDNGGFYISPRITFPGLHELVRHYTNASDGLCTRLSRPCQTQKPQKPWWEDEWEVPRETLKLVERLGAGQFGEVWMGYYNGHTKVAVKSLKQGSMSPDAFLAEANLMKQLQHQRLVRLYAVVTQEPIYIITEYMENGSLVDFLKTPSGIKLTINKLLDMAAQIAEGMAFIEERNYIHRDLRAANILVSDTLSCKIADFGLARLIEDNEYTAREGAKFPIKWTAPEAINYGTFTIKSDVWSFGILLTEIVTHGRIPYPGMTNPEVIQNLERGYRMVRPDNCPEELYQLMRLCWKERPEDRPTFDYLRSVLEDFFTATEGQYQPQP
molecule,measurement,setting,value
CC[C@H](C)[C@H](NC(=O)[C@H](CNC(CC(=O)O)CC(=O)O)NC(=O)CNC(=O)[C@H](CCCNC(=N)N)NC(=O)[C@H](CCCNC(=N)N)NC(C)=O)C(N)=O (Ac-RRG[X2]I-NH2),Ki,PKA [1],45 µM
OB(O)c1cc2ccccc2o1 [compound 35],% Inhibition of 2 mM RR-src at Inhibitor Concentration ( ),pp60^c-src; 100 μM inhibitor,10 (100 μM) %
CC[C@H](C)[C@H](NC(=O)[C@H](CNS(=O)(=O)O)NC(=O)CNC(=O)[C@H](CCCNC(=N)N)NC(=O)[C@H](CCCNC(=N)N)NC(C)=O)C(N)=O [compound 8] (Ac-RRG[X1]I-NH2),binds more tightly than end product phosphate inhibitor 1,PKA [1]; Literature Mimetic conditions,31 times
same,binds more tightly than end product phosphate inhibitor 1,PKA [2],108 times
same,enzyme form bound best (STAIRe methodology),PKA [3],bind best when MgATP (not MgADP or no nucleotide) is also bound
COc1cccc2c1C(=O)c1c(O)c3c(c(O)c1C2=O)C[C@@](O)(C(=O)CO)C[C@@H]3O[C@H]1C[C@H](N)[C@H](O)[C@H](C)O1 [doxorubicin],efficacy in tumor cell culture compared with other drugs,[4],more effective than etoposide & cisplatin
O=S(=O)(O)c1ccc2ccccc2c1,% Inhibition of 2 mM RR-src at Inhibitor Concentration ( ),pp60^c-src; 1 mM inhibitor,0 (1 mM) %
CC(=O)O[C@H]1C(=O)[C@@]2(C)[C@H]([C@H](OC(=O)c3ccccc3)[C@]3(O)C[C@H](OC(=O)[C@H](O)[C@@H](NC(=O)c4ccccc4)c4ccccc4)C(C)=C1C3(C)C)[C@]1(OC(C)=O)CO[C@@H]1C[C@@H]2O [taxol],efficacy in tumor cell culture compared with other drugs,[4],more effective than etoposide & cisplatin
NC(=O)C(O)C(=O)O (centres unmarked),inhibition at 1000 µM,src,64%
same,inhibition at 1000 µM,pp60^c-src,5%
NS(=O)(=O)c1ccc2ccccc2c1,% Inhibition of 2 mM RR-src at Inhibitor Concentration ( ),pp60^c-src; 100 μM inhibitor,0 (100 μM) %
NC(=O)C(N)C(=O)O (centres unmarked),inhibition at 1000 µM,src,24%
same,inhibition at 1000 µM,pp60^c-src,0%
OB(O)c1cccc2ccccc12,% Inhibition of 2 mM RR-src at Inhibitor Concentration ( ),pp60^c-src; 100 μM inhibitor,0 (100 μM) %
"CC[C@H](C)[C@H](NC(=O)[C@H](CC(O)P(=O)(O)O)NC(=O)CNC(=O)[C@H](CCCNC(=N)N)NC(=O)[C@H](CCCNC(=N)N)NC(C)=O)C(N)=O (single isomer, unassigned) [inhibitor 3B]",Ki,PKA [1],72 µM
NS(=O)(=O)c1cccc2ccccc12,% Inhibition of 2 mM RR-src at Inhibitor Concentration ( ),pp60^c-src; 100 μM inhibitor,0 (100 μM) %
COC(=O)c1cc2ccccc2cc1N [Compd 1d],% Inhibition at 100 μM (std. dev.),"pp60^c-src; Table VI, hydroxynaphthalene series, 198 μM ATP",inactive
CC[C@H](C)[C@H](NC(=O)[C@H](CCP(=O)(O)O)NC(=O)CNC(=O)[C@H](CCCNC(=N)N)NC(=O)[C@H](CCCNC(=N)N)NC(C)=O)C(N)=O (Ac-RRG[Abu(4-PO3H2)]I-NH2),Ki,PKA [1],76 µM
OB(O)c1ccc2ccccc2c1 [compound 27],mode of inhibition relative to ATP,pp60^c-src; ATP increased up to 1 mM,not ATP-competitive
O=P(O)(O)CO,inhibition at 1000 µM,src,51%
same,inhibition at 1000 µM,pp60^c-src,0%
NC(=O)CC(=O)O,inhibition at 1000 µM,src,20%
same,inhibition at 1000 µM,pp60^c-src,28%
Cc1cc(O)c2c(c1)C(=O)c1cc(O)cc(O)c1C2=O [Emodin],mode of inhibition with respect to ATP,p56^lck,ATP-competitive
cAMP-dependent protein kinase (PKA),phosphorylation by PKA on incubation for up to 4 hours without Kemptamide,[5],both 21 and 22 function as substrates with the D-diastereomer 22 being phosphorylated faster
same,phosphorylation by PKA on incubation for up to 4 hours without Kemptamide,[6],both 21 and 22 function as substrates with the D-diastereomer 22 being phosphorylated faster
"CC[C@H](C)[C@H](NC(=O)[C@H](CC(O)P(=O)(O)O)NC(=O)CNC(=O)[C@H](CCCNC(=N)N)NC(=O)[C@H](CCCNC(=N)N)NC(C)=O)C(N)=O (single isomer, unassigned) [inhibitor 3A]",Ki,PKA [1],18 µM
"Ac-RRGA(M1)I-NH2 (reading uncertain; also: diastereomer B at M1, printed as Ac-Arg-Arg-Gly-Ala(M1)-Ile-NH2) [PKA pentapeptide inhibitor 3B (hydroxyphosphonate, diastereomer B), Ac-Arg-Arg-Gly-Ala(M1)-Ile-NH2]",Ki,[7],72 µM
"Ac-RRGAI-NH2 (not fully specified (residue 4); printed as Ac-Arg-Arg-Gly-Ala(M1)-Ile-NH2; also: M1 = phosphate group on side chain of residue 4) [PKA pentapeptide inhibitor 1 (end product phosphate inhibitor), Ac-Arg-Arg-Gly-Ala(M1)-Ile-NH2]","fold change in potency, Literature Mimetic to Cellular Mimetic conditions",[8],108 fold
"Ac-RRGA(M1)I-NH2 (reading uncertain; also: diastereomer A at M1, printed as Ac-Arg-Arg-Gly-Ala(M1)-Ile-NH2) [PKA pentapeptide inhibitor 3A (hydroxyphosphonate, diastereomer A), Ac-Arg-Arg-Gly-Ala(M1)-Ile-NH2]",Ki,[7],18 µM
"Ac-RRGAI-NH2 (not fully specified (residue 4); printed as Ac-Arg-Arg-Gly-Ala(M1)-Ile-NH2; also: M1 = phosphonate on side chain of residue 4) [PKA pentapeptide inhibitor 2 (phosphonate), Ac-Arg-Arg-Gly-Ala(M1)-Ile-NH2]",Ki,[7],76 µM
"Ac-RRGAI-NH2 [pentapeptide pseudosubstrate inhibitor 20, Ac-RRGAI-NH2]","IC50 µM (cond. C, 0 h preincubation), PKA inhibition",[9],41 µM
same,"IC50 µM (cond. C, 4 h preincubation), PKA inhibition",[9],50 µM
same,"IC50 µM (cond. L, 0 h preincubation), PKA inhibition",[9],278 µM
same,"IC50 µM (cond. L, 4 h preincubation), PKA inhibition",[9],417 µM
same,Ki,[10],25 µM
same,Ki,[11],9 µM
"Ac-RRGAI-NH2 (not fully specified (residue 4); printed as Ac-Arg-Arg-Gly-Ala(M1)-Ile-NH2; also: M1 = sulfamic acid on side chain of residue 4) [PKA pentapeptide inhibitor 8 (sulfamic acid), Ac-Arg-Arg-Gly-Ala(M1)-Ile-NH2]",Ki,[7],0.16 µM
same,fold tighter binding than end product phosphate inhibitor 1,[12],108 times
same,fold tighter binding than end product phosphate inhibitor 1,[13],31 times
"Ac-RRGA(M1)I-NH2 (not fully specified; printed as Ac-Arg-Arg-Gly-Ala(M1)-Ile-NH2; reading uncertain) [PKA pentapeptide inhibitor 11, Ac-Arg-Arg-Gly-Ala(M1)-Ile-NH2]",Ki,[7],45 µM
"Ac-RRGA(M1)I-NH2 (reading uncertain; also: M1 group structure shown only in a drawing, printed as Ac-Arg-Arg-Gly-Ala(M1)-Ile-NH2) [PKA pentapeptide inhibitor 10, Ac-Arg-Arg-Gly-Ala(M1)-Ile-NH2]","fold change in potency, Literature Mimetic to Cellular Mimetic conditions",[8],3 fold
"Ac-RRGAI-NH2 (not fully specified (residue 4); printed as Ac-Arg-Arg-Gly-Ala(M1)-Ile-NH2; also: M1 = sulfonamide on side chain of residue 4) [PKA pentapeptide inhibitor 7 (sulfonamide), Ac-Arg-Arg-Gly-Ala(M1)-Ile-NH2]",Ki,[7],300 µM
same,fold less potent than inhibitor 8,[14],1880 times

# Source: patent US7901894B2, “Kinase inhibitors” (The Research Foundation of State University of New York, priority 1999, dated 2011)
